In paper PMC9503608, “An Insight into Symmetrical Cyanine Dyes as Promising Selective Antiproliferative Agents in Caco-2 Colorectal Cancer Cells” (Molecules, 2022):
Read-outs that look alike come from different tables or passages of the source.

Assays:
[1] = tested on: Caco-2 cells; assay: Apoptosis by propidium iodide staining and flow cytometry; format: cell-based, human
Method: (§1) The apoptosis occurrence and influence of the dye 12 on the cell cycle were evaluated using propidium iodide (PI) staining and flow cytometry, as described by Riccardi and Nicolleti. After the near confluency of the culture, trypsinisation, and counting, Caco-2 cells were seeded (2 mL, 3 × 10^4 cells/mL) in 6-well plates. After 48 h of adherence, the cells were treated with the test solutions (3 mL and 5 mL for negative control) and incubated for 72 h. Untreated cells were used as the negative control, and sorbitol and 5-FU [56] were used as positive controls for the apoptosis and cell cycle distribution studies, respectively. After incubation, the supernatant was collected and the cells were washed with PBS and combined with the cells harvested using the trypsin treatment. This cell suspension was maintained on ice and centrifugated, and then the pellet was resuspended in 0.5 mL of PBS. The cells were fixed by adding 4.5 mL of 70% ethanol cooled at −20 °C and were stored at the same temperature. For the cytometry analysis, PBS was added to the fixed cells before centrifugation, and then the ethanolic supernatant was removed. The pellet was resuspended in 0.5 mL of PBS and 0.5 mL of DNA extraction (192 mL of 0.2 M sodium phosphate and 8 mL of […], pH 7.8) was added. After incubation for 5 min, the cells were centrifuged, the supernatant was removed, and the pellet resuspended in 0.3 mL of staining solution (20 µg/mL of PI and 0.2 mg/mL of DNase-free RNase in PBS). Using a FACSCalibur flow cytometer and the 488 nm laser line, a minimum of 20,000 events were recorded. Acquisition and apoptosis analysis was performed using BD CellQuestTM Pro 4.0.2 Software. Cell cycle analysis was performed with ModFit LT 5.0.9 software. To exclude debris and necrotic cells, events with a lower diameter (forward scatter; FCS) and reduced PI fluorescence (FL3) than the hypodiploid apoptotic cells were eliminated. Two independent experiments were performed.

[2] = tested on: Caco-2 cells; assay: Cell cycle distribution by propidium iodide staining and flow cytometry; format: cell-based, human; settings: dye 12 and 5-FU 10 µM 72 h, sorbitol 600 mM 24 h, versus untreated cells
Method: as §1

[3] = MTT cell viability assay, Caco-2; format: cell-based, human; settings: human, 72 h, read-out: SI Caco-2 (selectivity index, cancer versus NHDF)
Method: (§2) Caco-2, MCF-7, PC-3, and NHDF cell lines were obtained from the American Type Culture Collection (ATCC) and maintained in 75 cm^2 culture flasks in a humidified atmosphere at 37 °C with 5% carbon dioxide using a LEEC Culture Safe Precision CO2 Incubator. The culture media was renewed every two to three days. The NHDF cell line was cultured in Roswell Park Memorial Institute (RPMI) medium supplemented with 10% of inactivated fetal bovine serum (FBS), 2 mM of L-glutamine, 10 mM of 4-(2-hydroxyethyl)-1-piperazineethanesulfonic acid (HEPES), 1 mM of sodium pyruvate, and 1% of antibiotic/antimycotic mixture (Ab; 10,000 U/mL of penicillin G, […] of streptomycin, and 25 µg/mL of amphotericin B). The PC-3 cell line was also cultured in RPMI 1640 medium supplemented with 10% inactivated FBS and 1% of an antibiotic mixture (Sp; 10,000 U/mL of penicillin G and […] of streptomycin). The Caco-2 and MCF-7 cell lines were grown in Dulbecco’s Modified Eagle Medium (DMEM). Caco-2 was supplemented with 20% of inactivated FBS and 1% of Sp. On the other hand, the MCF-7 medium was complemented with 10% of inactivated FBS and 1% of Ab. All manipulations were performed in a Labculture Class II A2 Biological Safety Cabinet.
(§3) After the near confluency of cultures, cells were detached with a solution of 0.125 g/L trypsin and 0.02 g/L ethylenediaminetetracetic acid (EDTA), counted using the trypan blue method, resuspended, and seeded in 96-well culture plates (100 µL, 2 × 10^4 cells/mL). Following 48 h of adherence, cells were treated with the test solutions and incubated for 72 h. This incubation, as well as the solution manipulations, were performed in an environment protected from light. After the incubation, the medium was replaced with a fresh incomplete culture medium (without FBS and Ab or Sp) and MTT solution (5 mg/mL in phosphate buffer saline (PBS)). After additional incubation for 4 h, the MTT medium was removed, formazan crystals were dissolved in DMSO, and the optical density of each well was measured at 570 nm using a microplate spectrophotometer Bio-Rad xMark. Untreated cells were used as a negative control and 5-FU as the positive control. The results were expressed as the relative cell proliferation relative to the negative control cells. […] To determine the IC50 values, Caco-2, MCF-7, PC-3, and NHDF cells were exposed to increasing concentrations between 0.001 and 100 μM.

[4] = tested on: Caco-2 colorectal adenocarcinoma cell line; assay: MTT cell viability assay, Caco-2; format: cell-based, human; settings: Homo sapiens; for IC50: 72 h of incubation, MTT, protected from light; for viability at 10 µM: read-out: cell viability percentage in relation with control, Caco-2
Method: as §2, §3

[5] = MTT cell viability assay, NHDF; format: cell-based, human; settings: human, normal human dermal fibroblasts (NHDF), single concentration of 10 µM, 72 h, mean ± SD; read-out: cell viability percentage in relation with control, NHDF
Method: as §2, §3

[6] = tested on: normal human dermal fibroblasts (NHDF); assay: MTT cell viability assay, NHDF; format: cell-based; settings: Homo sapiens, NHDF, 72 h of incubation, MTT, protected from light
Method: as §2, §3

[7] = tested on: MCF-7 breast adenocarcinoma cell line; assay: MTT cell viability assay, MCF-7; format: cell-based, human; settings: Homo sapiens; for viability at 10 µM: read-out: cell viability percentage in relation with control, MCF-7
Method: as §2, §3

[8] = tested on: PC-3 prostate adenocarcinoma cell line; assay: MTT cell viability assay, PC-3; format: cell-based, human; settings: for viability at 10 µM: read-out: cell viability percentage in relation with control, PC-3
Method: as §2, §3

[9] = tested on: Caco-2 cells; assay: Morphological analysis by inverted microscopy; format: cell-based, human; settings: 10 µM, 72 h, 20 or 40× magnification, versus untreated cells
Method: After the near confluency of the culture, trypsinisation, and counting, Caco-2 cells were seeded (3 mL; 3 × 10^4 cells/mL) in 35 mm cell culture dishes with treatment for the tissue culture. Following 48 h of adherence, the cells were treated with the test solutions and incubated for 72 h in an environment protected from light. At every 24 h, cellular morphology was verified in an Olympus CKX41 SF inverted microscope with a 10, 20, or 40× objective, and the analysis was based on comparing the cells with and without treatment. Cell imaging was captured using a DC6V Olympus digital camera coupled to the microscope.

[10] = Caco-2, 72 h, single concentration of 10 µM, 72 h, mean ± SD
[11] = MCF7, 72 h, single concentration of 10 µM, 72 h, mean ± SD
[12] = Homo sapiens, 72 h, single concentration of 10 µM, 72 h, mean ± SD

Row | Structure (SMILES) | selectivity ratio at 72 h ([3]; Caco-2, Caco-2 versus NHDF) | IC50 ([4]; Caco-2, 72 h) | viability at 10 µM [4, 10] | viability at 72 h, 10 µM [5] | IC50 ([6]; 72 h) | melting point | viability at 10 µM [7, 11] | viability at 10 µM [8, 12] | further results
1 | OC[C@@H](O)[C@@H](O)[C@H](O)[C@@H](O)CO [sorbitol, reference compound] |  |  |  |  |  |  |  |  | apoptosis induced (percent of cells) ([1]; Caco-2, dye 12 10 µM 72 h, sorbitol 600 mM 24 h): about 28%; effect on cell cycle distribution [2]: did not significantly affect the Caco-2 cell cycle
2 | CCCCCN1C(=CC=C2CCCC(C=Cc3sc4ccccc4[n+]3CCCCC)=C2Cl)Sc2ccccc21.[I-] [Dye 17, 2-(2-(2-Chloro-3-(2-(3-pentylbenzo[d]thiazol-2(3H)-ylidene)ethylidene)cyclohex-1-en-1-yl)vinyl)-3-pentylbenzo[d]thiazol-3-ium iodide] | 0.4 | 2060 nM | 0.24 ± 0.17% | 2.26 ± 0.1% | 910 nM | 227 to 228 °C | 11.2 ± 3.11% | 0.43 ± 0.26% | 
3 | CCCN1C=CC(=Cc2cc[n+](CCC)c3ccccc23)c2ccccc21.[I-] [Dye 14, 1-Propyl-4-((1-propylquinolin-4(1H)-ylidene)methyl)quinolin-1-ium iodide] | 1.5 | 680 nM | 9.84 ± 0.93% | 1.99 ± 0.25% | 990 nM | 229 to 231 °C | 22.9 ± 0.68% | 8.03 ± 2.15% | 
4 | C(=C1Sc2ccccc2N1Cc1ccccc1)c1sc2ccccc2[n+]1Cc1ccccc1.[I-] [Dye 8, 3-Benzyl-2-((3-benzylbenzo[d]thiazol-2(3H)-ylidene)methyl)benzo[d]thiazol-3-ium iodide] | 1 | 950 nM | 0.32 ± 0.03% | 2.04 ± 0.39% | 930 nM | 249 to 250 °C | 1.47 ± 1.13% | 1.16 ± 0.49% | 
5 | CCN1C(=CC=Cc2[se]c3ccccc3[n+]2CC)[Se]c2ccccc21.[I-] [Dye 16, 3-Ethyl-2-(3-(3-ethylbenzo[d][1,3]selenazol-2(3H)-ylidene)prop-1-en-1-yl)benzo[d][1,3]selenazol-3-ium iodide] |  |  |  | 4.53 ± 0.39% |  | 272 to 273 °C (dec.) |  |  | selectivity ratio at 72 h ([3]; Caco-2 versus NHDF): 6.5; IC50 ([4]; Caco-2): 70 nM; viability at 10 µM ([4]; Caco-2, single concentration of 10 µM, 72 h, mean ± SD): 1.25 ± 0.39%; IC50 [6]: 480 nM; viability at 10 µM ([7]; MCF7, single concentration of 10 µM, 72 h, mean ± SD): 1.39 ± 0.68%; viability at 10 µM ([8]; Homo sapiens, single concentration of 10 µM, 72 h, mean ± SD): 3.92 ± 0.75%
6 | CCN1C(=Cc2sc3ccccc3[n+]2CC)Sc2ccccc21.[O-][Cl+3]([O-])([O-])[O-] [Dye 7, 3-Ethyl-2-((3-ethylbenzo[d]thiazol-2(3H)-ylidene)methyl)benzo[d]thiazol-3-ium perchlorate] |  |  |  | 3.34 ± 0.14% |  | 296 to 297 °C |  |  | selectivity ratio at 72 h ([3]; Caco-2 versus NHDF): 3; viability at 10 µM ([4]; Caco-2, 72 h): 3.11 ± 0.94%; IC50 ([4]; Caco-2): 280 nM; IC50 [6]: 830 nM; viability at 10 µM ([7]; MCF7, 72 h): 0.96 ± 0.61%; viability at 10 µM ([8]; Homo sapiens, 72 h): 1.19 ± 0.29%
7 | CN1C(=Cc2ccc3ccccc3[n+]2C)C=Cc2ccccc21.[I-] [Dye 13, 1-Methyl-2-((1-methylquinolin-2(1H)-ylidene)methyl)quinolin-1-ium iodide] | 1 | 580 nM | 7.81 ± 0.51% | 8.37 ± 2.26% | 590 nM | 240 to 241 °C | 11.8 ± 1.89% | 7.42 ± 1.27% | 
8 | O=c1[nH]cc(F)c(=O)[nH]1 [Dye 5-FU, 5-fluorouracil, reference compound] | 3.6 | 1700 nM | 25.7 ± 1.02% | 12.7 ± 3.99% | 6170 nM |  | 16 ± 1.8% | 11.9 ± 2.1% | morphological changes of Caco-2 cells [9]: cell size increase with an enlarged and well-defined nucleus; increase in apoptotic cells relative to untreated cells ([1]; Caco-2, 10 µM, 72 h): approximately 10%; IC50 ([7]; MCF7, 72 h of incubation, MTT, protected from light): 1240 nM; effect on cell cycle distribution [2]: significant increase in the rate of Caco-2 cells in the S-phase; IC50 ([8]; Homo sapiens, 72 h of incubation, MTT, protected from light): 1720 nM; SI PC-3 (selectivity index, cancer versus NHDF) ([8]; PC-3 versus NHDF, 72 h): 3.6
